Key:
[1] = molecular target: H1 receptor; details: read-out: Ki H1 receptor (ChEMBLdb); known activity in ChEMBLdb ref 28; cited from earlier work
[2] = molecular target: hH1R (Homo sapiens, UniProt P35367); experiment: Inositol phosphate; type: cell-based; details: for functional character in histamine stimulated InsP accumulation assays: HEK293T cells transiently transfected with hH1R
[3] = molecular target: human H1R (Homo sapiens, UniProt P35367); experiment: Radioligand displacement assay, [3H]-mepyramine binding; details: displacement of [3H]-mepyramine, membranes of HEK293T cells transiently expressing human H1R; mean ± SEM, at least three independent measurements
Sequence of human H1R (P35367 whole entry): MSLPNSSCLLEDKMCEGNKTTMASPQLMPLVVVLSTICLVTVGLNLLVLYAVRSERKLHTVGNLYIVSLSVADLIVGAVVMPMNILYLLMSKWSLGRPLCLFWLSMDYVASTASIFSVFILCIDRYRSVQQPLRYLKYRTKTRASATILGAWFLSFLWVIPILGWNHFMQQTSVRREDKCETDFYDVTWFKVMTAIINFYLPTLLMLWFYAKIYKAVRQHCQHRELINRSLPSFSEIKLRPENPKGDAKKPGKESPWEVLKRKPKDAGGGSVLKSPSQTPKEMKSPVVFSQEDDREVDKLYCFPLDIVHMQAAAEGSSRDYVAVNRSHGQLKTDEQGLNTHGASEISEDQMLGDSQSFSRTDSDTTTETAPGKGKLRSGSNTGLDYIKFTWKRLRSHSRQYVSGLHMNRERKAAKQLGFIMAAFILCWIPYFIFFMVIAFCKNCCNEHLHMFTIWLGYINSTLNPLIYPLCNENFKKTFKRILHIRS

[4] = molecular target: Human H3R (Homo sapiens, UniProt Q9Y5N1); experiment: Radioligand displacement assay, [3H]-N-α-methylhistamine binding
Sequence of Human H3R (Q9Y5N1 whole entry): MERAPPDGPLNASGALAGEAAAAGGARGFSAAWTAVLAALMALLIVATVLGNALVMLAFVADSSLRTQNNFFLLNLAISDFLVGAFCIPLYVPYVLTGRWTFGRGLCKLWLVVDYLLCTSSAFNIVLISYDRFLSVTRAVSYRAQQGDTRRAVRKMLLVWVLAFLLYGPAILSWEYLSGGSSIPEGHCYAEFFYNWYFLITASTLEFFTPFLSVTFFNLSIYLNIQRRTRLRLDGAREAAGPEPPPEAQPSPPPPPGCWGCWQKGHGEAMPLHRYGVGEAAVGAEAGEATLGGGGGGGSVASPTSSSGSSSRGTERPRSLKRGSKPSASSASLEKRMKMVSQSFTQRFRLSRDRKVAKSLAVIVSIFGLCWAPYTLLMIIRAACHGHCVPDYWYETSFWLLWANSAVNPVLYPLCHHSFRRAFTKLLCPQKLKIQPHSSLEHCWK

Sequence of hH1R (P35367 whole entry): as the sequence (P35367 whole entry) above

| Compound | Ki [1] | functional character in histamine stimulated InsP accumulation assays [2] | also measured |
| --- | --- | --- | --- |
| NC1=NCC2c3ccccc3Cc3ccccc3N12 (stereo not drawn) [Epinastine] | ≤ 10 µM | – | – |
| CN(C)CCCN1c2ccccc2CCc2ccccc21 [Imipramine] | ≤ 10 µM | – | – |
| Cc1ccc(/C(=C\CN2CCCC2)c2ccccn2)cc1 [Triprolidine] | ≤ 10 µM | – | – |
| c1ccc(Cc2ccccc2OC2CCNCC2)cc1 [compound 3] | – | – | inhibition of histamine-induced effects ([2]; tested against histamine (0.1 μM), InsP accumulation): completely inhibit |
| CN1CCN(c2nc(N3CCCC3)c3cnn(C)c3n2)CC1 [compound 4] | – | – | pKi H1R [3]: 7.21 ± 0.03 |
| CNCCCOc1cccc2ccccc12 [compound 9] | – | very weak partial agonist | intrinsic activity ([2]; InsP accumulation, HEK293T hH1R): 0.07 |
| c1cnc2c(c1)cc([C@@H]1CCCO1)n2CCN1CCCCC1 [compound 10] | – | inverse agonists | H3R affinity [4]: without H3R affinity |
| c1ccc2c(c1)nc1n(CCN3CCCCC3)cnn21 [compound 13] | – | inverse agonists | – |
| c1ccc2c(c1)n(CCN1CCCCC1)c1ncnn21 [compound 15] | – | inverse agonists | H3R affinity [4]: without H3R affinity |
